The text below walks through data of patent US20240207282A1, “METHOD OF INCREASING CHAPERONE MEDIATED AUTOPHAGY BY STABILIZING THE INTERACTION OF RETINOIC ACID RECEPTOR-ALPHA AND AN INHIBITOR” (ALBERT EINSTEIN COLLEGE OF MEDICINE, priority 2021, published 2024).

For data set [1], the system named is NIH3T3. The data set is described as follows: Intracellular proteolysis of long half-life proteins (3H-leucine). Type of data set: cell-based, mouse. The note with it: 10 μM; duration of increase after addition. How it is done:
Proteolysis was calculated from aliquots of the medium taken at different times and precipitated in trichloroacetic acid, as the amount of acid-precipitable radioactivity transformed to acid-soluble radioactivity at each time.

Data set [2] has as its system NIH3T3. The data set is described as follows: Macroautophagy activity (LC3-II flux, mCherry-GFP-LC3 reporter). Type of data set: cell-based, mouse. The following applies: 20 μM 16 h (LC3 flux). How it is done: Macroautophagy activity: Cells were transduced with a lentiviral vector expressing mCherry-GPF-LC3^32, fixed and flux determined as the conversion of dual fluorescence puncta (autophagosomes) into only red fluorescent puncta (autolysosomes). Flux was also measured by immunoblot for LC3 in cells incubated for 6 h with 20 mM NH4Cl/100 μM leupeptin, by discounting the intensity of LC3 in non-treated cells from that in cells treated with the inhibitors.

Data set [3] in a line: In vitro solubility by nephelometry. Type of data set: physicochemical. On the procedure:
In vitro solubility in the following conditions A) HBSS/HEPES 10 mM/BSA 0.1% pH 6 B) HBSS/HEPES 10 mM/BSA 0.1% pH 7.4 C) TRIS/BSA 0.1% PBS (pH 7.4 and at indicated doses were measured by Nephelometry using the NEPHELOstar Galaxy apparatus (BMG Lab Technologies). In vitro stability in human, mouse and rat liver microsomes and permeability using a bidirectional permeability assay with CaCo-2 cells (pH 6.5/7.4) assays were performed with standard methodology and analyzed by LC-MS/MS. at SIMM-SERVIER joint Biopharmacy Laboratory. In silico ADME properties calculated by QikProp (Schrodinger, LLC) analysis and ADME predictions for CA39 (left) and CA77 (right).

Data set [4] relates to rd10 mice. The data set is described as follows: rd10 mouse retinal degeneration, systemic (i.p.) administration. Type of data set: in vivo. The text has this: Animals: C57BL/6J mice wild-type (WT) and homozygous for the Pde6 mutation (rd10 mouse model of retinal degeneration) were obtained from The Jackson Laboratory. C57BL/6 KFERQ-Dendra mice were generated by back-crossing FVB KFERQ-Dendra mice with wild-type C57BL/6 mice for 8 generations. Both male and female animals were used in this study in equal distribution groups. However, results from both sexes were pooled, because of absence of significant differences in any of the parameters analyzed after statistical analysis with a mixed model of two-way ANOVA sex and treatment as independent variables and the corresponding measure as dependent variable. All animals were housed in a barrier-controlled facility (19-23° C. 30-60% relative humidity; 12-h light/dark cycle) with ad libitum access to standard chow pellets and water. For animal administration of CA compounds, a formula containing 30% PEG 400, 65% glucose solution (5%), 5% Tween 80 was used to dissolve them. CA compounds were prepared freshly by adding 5% DMSO and sonicating for 1 h. Treatment of KFERQ-Dendra mice with the CA compounds was done by i.p. daily injection of 30 mg/kg bw or vehicle for three consecutive days and tissues collected 6 h after the last injection. In the case of rd10 mice, animals were daily injected from P18 to P25 with CA77 (40 mg/kg bw). At P26, mice were sacrificed, and eyes fixed overnight with 4% PFA in PBS at 4° C. for immunofluorescence or retinas dissected and immediately frozen for biochemistry. Distribution of animals in the vehicle or treatment group was done randomly. All animal studies and procedures complied with ethical regulations, were performed in accordance with the European Union guidelines and the ARVO Statement for the Use of Animals in Ophthalmic and Vision Research and were approved by the Institutional Animal Care and Use Committee at the Albert Einstein College of Medicine, the CSIC Bioetica Comite and approved by the Comunidad de Madrid, PROEX232/17.
Cryosections and immunofluorescence: Cryosections and immunofluorescence in retinal sections were performed as previously described 10. Primary antibodies used in this study were Transducin (Santacruz Biotechnologies) and Opsin R/G (Millipore). Sections were visualized by confocal microscopy (TCS SP5; Leica Microsystems).
ONL thickness and outer segment length quantification: For ONL thickness quantification, DAPI images were taken at 40× in a fluorescence microscope Multidimensional system Leica AF6000 LX coupled to DMI600B microscope and Hamamatsu CCD 9100-02 camera. At least two sections per animal were analyzed, preferably central sections. Eight images per retina equally distributed along the retina were acquired. Three measures were taken per image and ratio ONL/INL quantified with ImageJ tools. Leica LAS-X was used for image acquisition and ImageJ (v.2.1.0) was used for image processing. For OS length measures, fixed positions common to all pictures were considered and OS length was measured using ImageJ straight line tool.
Mice were dark adapted overnight, and subsequent manipulations were performed in dim red light. Mice were anesthetized with intraperitoneal injections of ketamine (95 mg/kg) and xylazine (5 mg/kg) solution and maintained on a heating pad at 37° C. Pupils were dilated with a drop of 1% tropicamide (Colircusi Tropicamida; Alcon Cusi). To optimize electrical recording, a topical drop (2% Methocel; Hetlingen) was instilled on each eye immediately before situating the corneal electrode. Flash-induced ERG responses were recorded from the right eye in response to light stimuli produced with a Ganzfeld stimulator. Light intensity was measured with a photometer at the level of the eye (Mavo Monitor USB; Nürenberg). Four to 64 consecutive stimuli were averaged with an interval between light flashes in scotopic conditions of 10 s for dim flashes and of up to 60 s for the highest intensity. Under photopic conditions, the interval between light flashes was fixed at 1 s. […]

The subject of data set [5] is rd10 mice. The data set is described as follows: rd10 mouse retinal degeneration, single intravitreal injection. Type of data set: in vivo. On the procedure: Cryosections and immunofluorescence: Cryosections and immunofluorescence in retinal sections were performed as previously described 10. Primary antibodies used in this study were Transducin (Santacruz Biotechnologies) and Opsin R/G (Millipore). Sections were visualized by confocal microscopy (TCS SP5; Leica Microsystems). ONL thickness and outer segment length quantification: For ONL thickness quantification, DAPI images were taken at 40× in a fluorescence microscope Multidimensional system Leica AF6000 LX coupled to DMI600B microscope and Hamamatsu CCD 9100-02 camera. At least two sections per animal were analyzed, preferably central sections. Eight images per retina equally distributed along the retina were acquired. Three measures were taken per image and ratio ONL/INL quantified with ImageJ tools. Leica LAS-X was used for image acquisition and ImageJ (v.2.1.0) was used for image processing. For OS length measures, fixed positions common to all pictures were considered and OS length was measured using ImageJ straight line tool.

Where [6] appears, read: daily i.p. 40 mg/kg bw, p18 to p25.

With `Clc1ccc2c(c1)OCC(c1ccc(-c3ccccc3)cc1)=N2` [CA39], in the data set on NIH3T3 [1], the “intracellular rates of degradation of long-lived proteins” value is “remained upregulated 24 h after adding”. In addition, the effect on macroautophagy result with NIH3T3 [2] is listed as “did not have the inhibitory effect on macroautophagy”. In data set [3], the solubility entry was “reasonable solubility”.

With `CC(=O)Nc1ccc(C2=Nc3ccc(Cl)cc3OC2)cc1` [CA77], in the data set with rd10 mice [4] (ERG at P33), the electroretinogram wave amplitude entry is “significantly higher amplitude of their b-mixed, b-phot and flicker waves”; the “other light responses (ERG)” value was “No significant differences”. Moreover, in the data set on rd10 mice [4] (WT and rd10 mice, daily i.p. 40 mg/kg bw), the NCoR1 expression levels result is “did not change the expression levels of NCoR1”. Further, in the data set with rd10 mice [4] (setting [6]), the “mRNA levels of photoreceptor-specific proteins (rhodopsin)” value is recorded as “Higher mRNA levels of photoreceptor-specific proteins”, the “outer nuclear layer (ONL) thickness” value is “significantly thicker outer nuclear layers”, the “retinal GFAP levels” value is given as “strikingly lower levels of GFAP” and the “retinal L2A levels (immunoblot)” value is “significantly increasing retinal levels of the limiting CMA component”. Besides, the “length of outer segments of photoreceptors” value with rd10 mice [4] (daily i.p. 40 mg/kg bw, p18 to p25, vs vehicle) is “increased length of the outer segments of photoreceptors”. In the data set on NIH3T3 [1], the “intracellular rates of degradation of long-lived proteins” value was “remained upregulated 24 h after adding”. Also, the vision result in the data set with rd10 mice [5] (7 days after single intravitreal injection) is “preserved vision”. Also, the “retinal ONL/INL ratio, OS and ONL preservation” value in the data set with rd10 mice [5] (7 days after single intravitreal injection (40 μM) at P18) is “thicker retinal ONL/INL ratio and better OS and ONL preservation”. Moreover, the gliosis result in the data set on rd10 mice [5] (single intravitreal injection (40 μM) at P18) was “significantly improved”. The effect on macroautophagy result with NIH3T3 [2] was “did not have the inhibitory effect on macroautophagy”. Moreover, the solubility entry in data set [3] is given as “reasonable solubility”.
